2 compounds from article PMC11284788, “NN1213 – A Potent, Long-Acting, and Selective Analog of Human Amylin” (Journal of Medicinal Chemistry, 2024) can be followed below.

Converted amounts (≈) assume the structure as drawn. Like-named read-outs stand apart in the source and are kept apart here. Numbered stars: 1 amine (or outer) side, 2 acyl side, 3 side chain; on linkers, the order of the positions; unused ones are H or OH. Bridge positions count the residues as written; N and C are the ends. Side chains are listed from the residue outwards. Peptide text beside a SMILES is read from it. * marks the point of attachment. C20 diacid = O=C(O)CCCCCCCCCCCCCCCCCCC(=O)*; γGlu = O=C(O)[C@H](CCC(=O)[*:2])N[*:1]

One data set concerns the target T1, hCTR (Homo sapiens, UniProt P30988).
T1 sequence (P30988 25-474): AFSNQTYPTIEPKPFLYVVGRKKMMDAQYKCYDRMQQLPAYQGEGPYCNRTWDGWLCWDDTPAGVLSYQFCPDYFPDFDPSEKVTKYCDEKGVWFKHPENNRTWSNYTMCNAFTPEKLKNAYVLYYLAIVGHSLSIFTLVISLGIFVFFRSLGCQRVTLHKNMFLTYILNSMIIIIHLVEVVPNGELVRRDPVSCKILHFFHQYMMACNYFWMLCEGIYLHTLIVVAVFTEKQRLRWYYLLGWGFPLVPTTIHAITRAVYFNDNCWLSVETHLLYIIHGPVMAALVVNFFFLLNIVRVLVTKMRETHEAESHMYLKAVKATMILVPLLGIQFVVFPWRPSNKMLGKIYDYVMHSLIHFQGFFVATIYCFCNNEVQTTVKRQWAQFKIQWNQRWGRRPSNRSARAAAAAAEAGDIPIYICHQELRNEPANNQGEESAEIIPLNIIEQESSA
Description: cAMP-responsive element luciferase reporter assay, human CTR. The class given is cell-based. The settings on record: luciferase (human receptor assay). On the technique in general: A reporter such as luciferase makes a cellular process visible.

Data set [1] is described as follows: Solubility versus pH profile.
A short description of data set [2]: HMWP content by size-exclusion chromatography. The data set is classed as physicochemical. The conditions noted are these: covalent dimers and polymers prior to fibril formation testing, SEC, % of total absorbance area at 215 nm. The protocol: The stability properties of the individual amylin analogs were assessed with respect to their propensity toward amyloid fibril formation. The relative amount of covalent dimers and polymers (HMWP) present prior to fibril formation testing was measured as a control for the potential inhibitory effect of HMWP on fibril formation propensity as reported elsewhere.[39]
Elution was performed under isocratic conditions with the following mobile phase prepared in Milli-Q water (Millipore A/S): 0.5 M NaCl, 10 mM sodium dihydrogen monohydrate, 5 mM ortho-phosphoric acid, 50% (v/v) 2-propanol. The amount of HMWP was determined as the absorbance area of the corresponding peaks given in percentage of the total absorbance area. The molar extinction coefficients of the molecules eluting in the HMWP fraction and the main peak was assumed to be equal.
Background: SEC sorts molecules by how far they enter the pores of the column.

Another data set concerns the target T2, hAMY3R (Homo sapiens, UniProt O60896+P30988).
T2 sequence (P30988 25-474): T1 sequence (P30988 25-474)
T2 sequence (O60896 24-148 partner): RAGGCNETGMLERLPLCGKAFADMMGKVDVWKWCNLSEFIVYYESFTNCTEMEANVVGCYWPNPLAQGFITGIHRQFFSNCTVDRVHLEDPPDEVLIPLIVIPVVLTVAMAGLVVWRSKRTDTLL
Description: cAMP-responsive element luciferase reporter assay, human AMY3R. More on the design: expressed in transfected cells. The conditions noted are these: for EC50: luciferase (human receptor assay). The data set is classed as cell-based.

Data set [3] is described as follows: ThT assay: fibril formation propensity and peptide recovery. The class given is physicochemical. The settings on record: for recovery: residual dissolved peptide after 45 h of shaking, centrifugation and 0.22 μm filtration, HPLC, relative to amount before stress. As for the experimental part: The stability properties of the individual amylin analogs were assessed with respect to their propensity toward fibril formation, expressed as the time until fibril formation (measured as Lag time) and loss of dissolved peptide (assessed as Peptide Recovery). […] Samples were prepared as described previously (using the same methodology and materials) for a novel amylin-based analog candidate compound.[7]
Briefly, each compound was dissolved in 10 mM of glycylglycine buffer (pH 4.0) or HEPES buffer (pH 7.5) to a concentration of 250 μM, followed by ThT stock solution to a final concentration of 1 μM. Each solution was aliquoted into a microtiter plate (200 μL/well) sealed with a transparent adhesive sheet. Mechanical stress was applied at 37 °C incubation (960 rpm, 1 mm amplitude) with 20 min fluorescence reading intervals for 45 h (filters: excitation 444 nm; emission 485 nm). Each peptide was tested in experiments consisting of four replicas (e.g., four wells on the same plate), and the lag time of each replica was determined by visual inspection of the fluorescence-versus-time plot. For wells where no fibril formation could be detected, the lag time was set longer than the test period (>45 h). The lag time of the peptide was set to the lowest lag time of the four replicates (conservative estimate). Some of the peptides were tested in more than one experiment, and the lag time results given in Tables 6 and 9 represent the average of these experiments. The ThT time course data given in Supporting Information represent the average and SEM of each experiment.[40] After analysis, wells representing individual replicas were pooled, and the residual soluble peptide was isolated using centrifugation (20,000 g/30 min at room temperature) followed by […] filtration. The amount of residual dissolved peptide was determined using an HPLC with a flow rate of 2 mL/min at 30 °C and 215/276 nm detection. A gradient combining eluent A (7.7% w/w acetonitrile, 200 mM Na2SO4, 20 mM NaH2PO4, 20 mM Na2HPO4, pH 7.2) and eluent B (65.5% w/w acetonitrile) was applied. The amount of residual dissolved peptide was reported on a relative scale (Peptide Recovery) to the amount of dissolved peptide prior to mechanical stress.

A further data set relates to rats. In words: Acute food intake in rats. The data set is classed as in vivo, rat. The settings on record: single sc injection of 30 nmol/kg, relative to vehicle, mean ± SEM, n = 5–7 per group.

For the compound `CC[C@H](C)[C@H](NC(=O)[C@@H]1CCCN1C(=O)CNC(=O)[C@H](Cc1ccccc1)NC(=O)[C@@H]1CCCN1C(=O)[C@H](CC(N)=O)NC(=O)[C@H](CO)NC(=O)[C@H](CO)NC(=O)[C@H](Cc1c[nH]cn1)NC(=O)[C@H](CCCNC(=N)N)NC(=O)[C@H](CC(C)C)NC(=O)[C@H](Cc1ccccc1)NC(=O)[C@H](CC(=O)O)NC(=O)[C@H](C)NC(=O)[C@H](CC(C)C)NC(=O)[C@H](CCCNC(=N)N)NC(=O)[C@H](CCC(N)=O)NC(=O)[C@@H](NC(=O)[C@H](C)NC(=O)[C@@H]1CSSC[C@H](NC(=O)[C@@H](N)CCCCNC(=O)CC[C@H](NC(=O)CC[C@H](NC(=O)CCCCCCCCCCCCCCCCCCC(=O)O)C(=O)O)C(=O)O)C(=O)N[C@@H](CC(N)=O)C(=O)N[C@@H]([C@@H](C)O)C(=O)N[C@@H](C)C(=O)N[C@@H]([C@@H](C)O)C(=O)N1)[C@@H](C)O)C(=O)N[C@@H](CC(C)C)C(=O)N[C@@H](CO)C(=O)N[C@@H](CO)C(=O)N[C@H](C(=O)N[C@@H](CC(N)=O)C(=O)N[C@H](C(=O)NCC(=O)N[C@@H](CO)C(=O)N[C@@H](CC(=O)O)C(=O)N[C@H](C(=O)N[C@@H](Cc1ccc(O)cc1)C(N)=O)[C@@H](C)O)C(C)C)[C@@H](C)O` [Peptide 4] (H-K([γGlu-γGlu-C20 diacid])CNTATCATQRLADFLRHSSNPFGPILSSTNVGSDTY-NH2; disulfide 2-7), the EC50 was 0.676 nM on hCTR (Tables S12 and S14, read-out: hCTR pEC50 (converted)); 0.672 nM at hCTR (BHK cells stably expressing hCTR and CRE-luciferase, 3 h, 37 °C, 10% FBS, read-out: hCTR EC50); 0.269 nM on hAMY3R (Tables S12 and S14, read-out: hAMY3R pEC50 (converted)); 0.267 nM at hAMY3R (BHK cells stably expressing hCTR+RAMP3 and CRE-luciferase, 3 h, 37 °C, 10% FBS, read-out: hAMY3R EC50). Moreover, the kinetic solubility in data set [1] (bis-tris-propane buffer, pH 6, aqueous buffer) was 173 µM (≈ 788 µg/mL); in data set [1] (bis-tris-propane buffer, pH 6.5, aqueous buffer) it was not below 200 µM; in data set [1] (bis-tris-propane buffer, pH 7, aqueous buffer), not below 200 µM; in data set [1] (bis-tris-propane buffer, pH 7.5, aqueous buffer) it was not below 200 µM; in data set [1] (bis-tris-propane buffer, pH 8, aqueous buffer) it was not below 200 µM; in data set [1] (lactate buffer, pH 4, aqueous buffer) it was not below 200 µM. The solubility (kinetic) in data set [1] (lactate buffer, pH 5, aqueous buffer) came out at 38 µM (≈ 173 µg/mL). The HMWP in data set [2] (analogs 1–9 (pH 7.5 series)) was 5%. The “ratio hCTR/hAMY3R” value on hAMY3R (ratio of luciferase EC50 values) is recorded as 2.5. For the same compound, in data set [3] (250 μM peptide, 10 mM HEPES pH 7.5, 1 μM ThT, 37 °C, 960 rpm, 45 h, lowest of four replicas, average of experiments), the “ThT, pH 7.5 lag-time” value was 4 h. In data set [3] (pH 7.5), this compound registered a recovery of 21%.

`CC[C@H](C)[C@H](NC(=O)[C@H](C)NC(=O)CNC(=O)[C@H](Cc1ccccc1)NC(=O)[C@H](CC(N)=O)NC(=O)[C@@H]1CCCN1C(=O)[C@H](CO)NC(=O)[C@H](CO)NC(=O)[C@H](Cc1c[nH]cn1)NC(=O)[C@H](CCCNC(=N)N)NC(=O)[C@H](CC(C)C)NC(=O)[C@H](Cc1ccccc1)NC(=O)[C@H](CC(N)=O)NC(=O)[C@H](C)NC(=O)[C@H](CC(C)C)NC(=O)[C@H](CCCNC(=N)N)NC(=O)[C@H](CCC(N)=O)NC(=O)[C@@H](NC(=O)[C@H](C)NC(=O)[C@@H]1CSSC[C@H](NC(=O)[C@H](CCCCN)NC(=O)COCCOCCNC(=O)CC[C@H](NC(=O)CCCCCCCCCCCCCCCCCCC(=O)O)C(=O)O)C(=O)N[C@@H](CC(N)=O)C(=O)N[C@@H]([C@@H](C)O)C(=O)N[C@@H](C)C(=O)N[C@@H]([C@@H](C)O)C(=O)N1)[C@@H](C)O)C(=O)N1CCC[C@H]1C(=O)N[C@@H](CO)C(=O)N[C@@H](CO)C(=O)N[C@H](C(=O)N[C@@H](CC(N)=O)C(=O)N[C@H](C(=O)NCC(=O)N[C@@H](CO)C(=O)N[C@@H](CCCNC(=N)N)C(=O)N[C@H](C(=O)N[C@@H](Cc1ccc(O)cc1)C(N)=O)[C@@H](C)O)C(C)C)[C@@H](C)O` [Peptide 15]: the kinetic solubility in data set [1] (pH 4, aqueous buffer) was not below 200 µM; in data set [1] (pH 5, aqueous buffer), not below 200 µM; in data set [1] (pH 6, aqueous buffer), not below 200 µM; in data set [1] (pH 6.5, aqueous buffer), not below 200 µM; in data set [1] (pH 7, aqueous buffer), not below 200 µM; in data set [1] (pH 7.5, aqueous buffer), not below 200 µM. Moreover, in data set [1] (pH 8, aqueous buffer), the solubility (kinetic) was not below 200 µM. Further, the HMWP in data set [2] (analogs 10–21 (pH 4.0 series)) is reported as 0.7%. The “Acute food intake reduction 24–48 h” value in the data set on rats was determined as 0 ± 5%. Further, in data set [3] (250 μM peptide, 10 mM glycylglycine pH 4.0, 1 μM ThT, 37 °C, 960 rpm, 45 h, lowest of four replicas, average of experiments), the “ThT, pH 4.0 lag-time” value is given as 27 h. For the same compound, the recovery in data set [3] (pH 4.0) was 67%.

The term solubility (kinetic) denotes solubility judged after dilution from a stock solution rather than from solid.
